From paper PMC9636582 (The Journal of Biological Chemistry, 2022)

Legend:
[1] = biological target: T1, VP16-PPARδ / GAL4-NCoR (Homo sapiens, UniProt Q03181); assay: mammalian two-hybrid assay, VP16-PPARδ and corepressor NCoR; type: cell-based; conditions: 30 μM fatty acids, HEK293 cells, Fig. 3C
T1 construct: expressed in transfected cells; host or cells: HEK293
T1 sequence (Q03181 1-441): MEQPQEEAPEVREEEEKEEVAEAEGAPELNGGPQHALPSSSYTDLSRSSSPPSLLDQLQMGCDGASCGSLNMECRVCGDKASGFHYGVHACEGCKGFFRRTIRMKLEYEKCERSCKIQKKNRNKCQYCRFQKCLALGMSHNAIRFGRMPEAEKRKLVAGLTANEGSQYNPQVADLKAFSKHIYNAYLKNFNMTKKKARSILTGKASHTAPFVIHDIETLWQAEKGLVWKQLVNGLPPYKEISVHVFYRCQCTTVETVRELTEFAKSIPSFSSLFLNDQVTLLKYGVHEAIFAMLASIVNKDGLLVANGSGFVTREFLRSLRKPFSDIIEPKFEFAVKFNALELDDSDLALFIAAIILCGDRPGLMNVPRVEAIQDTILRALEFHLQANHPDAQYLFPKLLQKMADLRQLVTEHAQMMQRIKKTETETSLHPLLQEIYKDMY

[2] = biological target: full-length PPARα (Homo sapiens, UniProt Q07869); conditions: PPRE luciferase reporter, HEK293 cells, Fig. 1C
Sequence of full-length PPARα (Q07869 whole entry, species assumed): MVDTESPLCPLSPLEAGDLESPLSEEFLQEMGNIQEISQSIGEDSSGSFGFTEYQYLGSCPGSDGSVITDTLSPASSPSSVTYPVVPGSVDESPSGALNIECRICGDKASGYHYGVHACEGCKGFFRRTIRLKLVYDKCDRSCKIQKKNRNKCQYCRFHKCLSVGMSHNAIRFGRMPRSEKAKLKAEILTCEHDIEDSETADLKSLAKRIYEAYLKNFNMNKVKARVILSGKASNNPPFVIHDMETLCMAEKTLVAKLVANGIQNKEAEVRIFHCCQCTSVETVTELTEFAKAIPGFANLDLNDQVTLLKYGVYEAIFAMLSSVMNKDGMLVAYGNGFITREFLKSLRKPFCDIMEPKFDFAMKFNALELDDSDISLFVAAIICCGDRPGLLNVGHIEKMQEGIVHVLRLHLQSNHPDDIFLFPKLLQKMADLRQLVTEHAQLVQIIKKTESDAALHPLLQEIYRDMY

Row | Structure (SMILES) | interaction between PPARδ and corepressor NCoR [1] | transactivation of full-length PPARα (in words) [2]
1 | CCCCCC(=O)CCC=CCC=CCCCCC(=O)O [γKetoD, 13-oxo-cis-6,cis-9-octadecadienoic acid] | reduced the interaction | 
2 | CCCCCC(O)CCC=CCC=CCCCCC(=O)O (stereo not drawn) [γHYD, 13-hydroxy-cis-6,cis-9-octadecadienoic acid] | reduced the interaction | 
3 | CCCCC/C=C\C/C=C\C/C=C\CCCCC(=O)O [GLA, γ-linolenic acid, reference compound] |  | activated almost equally
